# Measured values from patent US8759342B2, “Benzo[1,4]oxazin-3-one, benzo[1,4]thiazin-3-one and quinolin-2-one urotensin II receptor antagonists” (Janssen Pharmaceutica NV, priority 2006, dated 2014).
# Read-outs that look alike come from different tables or passages of the source.
# How the values were obtained:
# Human UII receptors = biological target: T1, Human UII receptors (Homo sapiens, UniProt Q9UKP6); assay: Human radioligand binding assay, (125I)-U-II on HSMM
# T1 construct: host or cells: Human Skeletal Muscle Myoblasts (HSMM), intact adherent cells
# T1 sequence (Q9UKP6 1-389): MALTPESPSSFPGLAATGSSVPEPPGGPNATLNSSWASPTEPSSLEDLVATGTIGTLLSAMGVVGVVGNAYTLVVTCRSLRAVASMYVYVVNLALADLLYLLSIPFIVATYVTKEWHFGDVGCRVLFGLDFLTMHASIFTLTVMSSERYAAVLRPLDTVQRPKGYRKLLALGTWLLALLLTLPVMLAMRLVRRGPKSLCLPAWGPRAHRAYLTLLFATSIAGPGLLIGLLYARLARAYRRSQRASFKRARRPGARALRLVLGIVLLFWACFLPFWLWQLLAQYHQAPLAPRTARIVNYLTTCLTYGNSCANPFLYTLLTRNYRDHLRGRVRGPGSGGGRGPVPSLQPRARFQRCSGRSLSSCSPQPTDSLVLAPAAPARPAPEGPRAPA
# Experimental: Human Skeletal Muscle Myoblasts (HSMM) were obtained from Cambrex, and were cultured according to manufacturer's instruction. Cell viability was examined by trypan blue exclusion. Cells at less than 4 passages were used in all studies. […] The binding medium used was Dulbecco's modified Eagle's medium (DMEM) containing 2 mg/ml BSA and 25 mM HEPES (pH 7.4). […] The cells were washed 4× with the binding medium and solubilized in 1% SDS and 0.5 N NaOH. Radioactivity was quantified by gamma counting.
# [1] = biological target: T2, rat GPR14 (U-II receptor) (Rattus norvegicus, UniProt P49684); assay: Calcium flux assay (FLIPR); type: cell-based; details: Inhibition of acetyl-cyclic[Cys-Phe-Trp-Lys-(2-Nal)-Cys]-NH2 (1 nM) induced Ca2+ mobilization (FLIPR) in CHO cells transfected with rat UII receptor; 5 min incubation
# T2 construct: expressed in transfected cells
# T2 sequence (P49684 1-386): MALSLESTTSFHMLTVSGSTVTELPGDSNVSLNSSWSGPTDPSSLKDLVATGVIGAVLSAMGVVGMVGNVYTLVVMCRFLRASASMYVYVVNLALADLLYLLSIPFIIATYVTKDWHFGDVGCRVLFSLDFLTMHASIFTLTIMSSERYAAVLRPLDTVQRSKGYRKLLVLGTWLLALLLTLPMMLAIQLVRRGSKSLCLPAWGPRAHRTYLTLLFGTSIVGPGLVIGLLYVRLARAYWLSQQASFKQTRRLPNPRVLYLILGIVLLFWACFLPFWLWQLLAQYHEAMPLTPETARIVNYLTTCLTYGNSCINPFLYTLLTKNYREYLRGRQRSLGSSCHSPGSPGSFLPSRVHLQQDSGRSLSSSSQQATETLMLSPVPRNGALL
# Summary of the method: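 Stable CHO cell line expressing cloned rat U-II receptor, seeded 24 h before assay, loaded with FLIPR calcium dye in HBSS/20 mM HEPES/0.1% BSA/2.5 mM probenecid, pH 7.4, for 1 hr at 37° C. Calcium mobilization read at room temperature (23° C.).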
# [2] = 0.150 nM (125I)-U-II, intact Human Skeletal Muscle Myoblasts, 3 hrs, 25° C., read-out: Ki
Ki (Human UII receptors; [2]) [nM],IC50 [1] [nM],Compound,Ki (Human UII receptors) [nM]
54,400,"O=C(NCC1CCN(C(=O)OCc2ccccc2)CC1)c1cc(Cl)ccc1C1CCN(CCN2C(=O)COc3ccccc32)CC1 [Cpd 63, 4-[(5-chloro-2-{1-[2-(3-oxo-2,3-dihydro-benzo[1,4]oxazin-4-yl)-ethyl]-piperidin-4-yl}-benzoylamino)-methyl]-piperidine-1-carboxylic acid benzyl ester]",–
30,210,"O=C(NCC1CCN(C(=O)NCc2ccccc2)CC1)c1cc(Cl)ccc1C1CCN(CCN2C(=O)COc3ccccc32)CC1 [Cpd 67, 4-[(5-chloro-2-{1-[2-(3-oxo-2,3-dihydro-benzo[1,4]oxazin-4-yl)-ethyl]-piperidin-4-yl}-benzoylamino)-methyl]-piperidine-1-carboxylic acid benzylamide]",–
47,100,"CC(C)(C)OC(=O)N1CCC(CCNC(=O)c2cc(Cl)ccc2C2CCN(CCN3C(=O)COc4ccccc43)CC2)CC1 [Cpd 68, 4-[2-(5-chloro-2-{1-[2-(3-oxo-2,3-dihydro-benzo[1,4]oxazin-4-yl)-ethyl]-piperidin-4-yl}-benzoylamino)-ethyl]-piperidine-1-carboxylic acid tert-butyl ester]",–
62,150,"O=C(NCCCCNC(=O)c1cc(Cl)ccc1C1CCN(CCN2C(=O)COc3ccccc32)CC1)OCc1ccccc1 [Cpd 69, [4-(5-chloro-2-{1-[2-(3-oxo-2,3-dihydro-benzo[1,4]oxazin-4-yl)-ethyl]-piperidin-4-yl}-benzoylamino)-butyl]-carbamic acid benzyl ester]",–
30,53,"O=C(NCC1CCN(S(=O)(=O)Cc2ccccc2)CC1)c1cc(Cl)ccc1C1CCN(CCN2C(=O)COc3ccccc32)CC1 [Cpd 72, 5-chloro-2-{1-[2-(3-oxo-2,3-dihydro-benzo[1,4]oxazin-4-yl)-ethyl]-piperidin-4-yl}-N-(1-phenylmethanesulfonyl-piperidin-4-ylmethyl)-benzamide]",–
100,45,"CC(C)(C)OC(=O)NCCCCCCNC(=O)c1cc(Cl)ccc1C1CCN(CCN2C(=O)COc3ccccc32)CC1 [Cpd 74, [6-(5-chloro-2-{1-[2-(3-oxo-2,3-dihydro-benzo[1,4]oxazin-4-yl)-ethyl]-piperidin-4-yl}-benzoylamino)-hexyl]-carbamic acid tert-butyl ester]",–
34,40,"O=C(NCCCCCNC(=O)c1cc(Cl)ccc1C1CCN(CCN2C(=O)COc3ccccc32)CC1)OCc1ccccc1 [Cpd 75, [5-(5-chloro-2-{1-[2-(3-oxo-2,3-dihydro-benzo[1,4]oxazin-4-yl)-ethyl]-piperidin-4-yl}-benzoylamino)-pentyl]-carbamic acid benzyl ester]",–
37,27,"O=C(NCCCCCNC(=O)c1cc(Cl)ccc1C1CCN(CCN2C(=O)COc3ccccc32)CC1)NCc1ccccc1 [Cpd 77, N-[5-(3-benzyl-ureido)-pentyl]-5-chloro-2-{1-[2-(3-oxo-2,3-dihydro-benzo[1,4]oxazin-4-yl)-ethyl]-piperidin-4-yl}-benzamide]",–
40,100,"O=C(NCCCCCNS(=O)(=O)Cc1ccccc1)c1cc(Cl)ccc1C1CCN(CCN2C(=O)COc3ccccc32)CC1 [Cpd 78, 5-chloro-2-{1-[2-(3-oxo-2,3-dihydro-benzo[1,4]oxazin-4-yl)-ethyl]-piperidin-4-yl}-N-(5-phenylmethanesulfonylamino-pentyl)-benzamide]",–
120,170,"O=C(NCCCCCNC(=O)c1cc(Cl)ccc1C1CCN(CCN2C(=O)COc3ccccc32)CC1)NCCc1ccccc1 [Cpd 82, 5-chloro-2-{1-[2-(3-oxo-2,3-dihydro-benzo[1,4]oxazin-4-yl)-ethyl]-piperidin-4-yl}-N-[5-(3-phenethyl-ureido)-pentyl]-benzamide]",–
220,360,"CC(C)(C)OC(=O)NCCCCCNC(=O)c1cc(Cl)ccc1C1CCN(CCN2C(=O)CCc3ccccc32)CC1 [Cpd 83, [5-(5-chloro-2-{1-[2-(2-oxo-3,4-dihydro-2H-quinolin-1-yl)-ethyl]-piperidin-4-yl}-benzoylamino)-pentyl]-carbamic acid tert-butyl ester]",–

# Continued, compound first:
Compound,Ki (Human UII receptors; [2]) [nM],IC50 [1] [nM],Ki (Human UII receptors) [nM]
"O=C(NCCc1ccc2ccccc2c1)c1cc(Cl)ccc1C1CCN(CCN2C(=O)COc3ccccc32)CC1 [Cpd 61, 5-chloro-N-(2-naphthalen-2-yl-ethyl)-2-{1-[2-(3-oxo-2,3-dihydro-benzo[1,4]oxazin-4-yl)-ethyl]-piperidin-4-yl}-benzamide]",260,2000,–
"CC(C)(C)CC(=O)N1CCC(CNC(=O)c2cc(Cl)ccc2C2CCN(CCN3C(=O)COc4ccccc43)CC2)CC1 [Cpd 65, 5-chloro-N-[1-(3,3-dimethyl-butyryl)-piperidin-4-ylmethyl]-2-{1-[2-(3-oxo-2,3-dihydro-benzo[1,4]oxazin-4-yl)-ethyl]-piperidin-4-yl}-benzamide]",32,330,–
"CC(C)(C)OC(=O)N1CCN(CCNC(=O)c2cc(Cl)ccc2C2CCN(CCN3C(=O)COc4ccccc43)CC2)CC1 [Cpd 66, 4-[2-(5-chloro-2-{1-[2-(3-oxo-2,3-dihydro-benzo[1,4]oxazin-4-yl)-ethyl]-piperidin-4-yl}-benzoylamino)-ethyl]-piperazine-1-carboxylic acid tert-butyl ester]",57,15,–
"CC(C)(C)OC(=O)NCCCCCNC(=O)c1cc(Cl)ccc1C1CCN(CCN2C(=O)COc3ccccc32)CC1 [Cpd 70, [5-(5-chloro-2-{1-[2-(3-oxo-2,3-dihydro-benzo[1,4]oxazin-4-yl)-ethyl]-piperidin-4-yl}-benzoylamino)-pentyl]-carbamic acid tert-butyl ester]",25,32,–
"CC(C)(C)CC(=O)NCCCCCNC(=O)c1cc(Cl)ccc1C1CCN(CCN2C(=O)COc3ccccc32)CC1 [Cpd 76, 5-chloro-N-[5-(3,3-dimethyl-butyrylamino)-pentyl]-2-{1-[2-(3-oxo-2,3-dihydro-benzo[1,4]oxazin-4-yl)-ethyl]-piperidin-4-yl}-benzamide]",–,150,43
"CC(C)(C)OC(=O)NCCOCCNC(=O)c1cc(Cl)ccc1C1CCN(CCN2C(=O)COc3ccccc32)CC1 [Cpd 79, {2-[2-(5-chloro-2-{1-[2-(3-oxo-2,3-dihydro-benzo[1,4]oxazin-4-yl)-ethyl]-piperidin-4-yl}-benzoylamino)-ethoxy]-ethyl}-carbamic acid tert-butyl ester]",–,37,53
"CC(CN1C(=O)COc2ccccc21)N1CCC(c2ccc(Cl)cc2C(=O)NCC2CCN(S(=O)(=O)Cc3ccccc3)CC2)CC1 (stereo not drawn) [Cpd 84, 5-chloro-2-{1-[1-methyl-2-(3-oxo-2,3-dihydro-benzo[1,4]oxazin-4-yl)-ethyl]-piperidin-4-yl}-N-(1-phenylmethanesulfonyl-piperidin-4-ylmethyl)-benzamide]",210,2000,–
"CC(C)(C)OC(=O)N1CCN(CCNC(=O)c2cc(Cl)ccc2C2=CC3CCC(C2)N3CCN2C(=O)COc3ccccc32)CC1 (stereo not drawn) [Cpd 94, 4-[2-(5-chloro-2-{8-[2-(3-oxo-2,3-dihydro-benzo[1,4]oxazin-4-yl)-ethyl]-8-aza-bicyclo[3.2.1]oct-2-en-3-yl}-benzoylamino)-ethyl]-piperazine-1-carboxylic acid tert-butyl ester]",1900,290,–
"CC(C)(C)OC(=O)NCCCCCNC(=O)c1cc(Cl)ccc1C1=CC2CCC(C1)N2CCN1C(=O)COc2ccccc21 (stereo not drawn) [Cpd 95, [5-(5-chloro-2-{8-[2-(3-oxo-2,3-dihydro-benzo[1,4]oxazin-4-yl)-ethyl]-8-aza-bicyclo[3.2.1]oct-2-en-3-yl}-benzoylamino)-pentyl]-carbamic acid tert-butyl ester]",1300,640,–
"CC(C)(C)OC(=O)NCCCCCNC(=O)c1ccccc1[C@@H]1C[C@H]2CC[C@@H](C1)N2CCN1C(=O)COc2ccccc21 [Cpd 98, [5-(2-{8-[2-(3-oxo-2,3-dihydro-benzo[1,4]oxazin-4-yl)-ethyl]-8-aza-bicyclo[3.2.1]oct-3-yl}-benzoylamino)-pentyl]-carbamic acid tert-butyl ester]",1400,1600,–
